Reference: patent publication US10117845B2, “Retinal derivatives and methods for the use thereof for the treatment of visual disorders” (University of Washington, priority 2004, dated 2018)

Tests used:
[1] = system: LRAT−/− mice (LCA mouse model); assay: Retinoids in eyes of gavaged LRAT−/− mice, analyzed by HPLC (Example 1); assay type: in vivo
Procedure: […]. HPLC chromatogram showing retinoid elution in treated and control mice eye and liver tissue. FIG. 1A. Eyes from dark adapted LRAT−/− mouse. FIG. 1B. Eyes from dark-adapted LRAT−/− mouse gavaged with 5 mg all-trans-retinyl palmitate 2 days prior. FIG. 1C. Eyes from dark-adapted LRAT−/− mouse gavaged with 5 mg all-trans-retinyl acetate 2 days prior. FIG. 1D. Eyes from dark-adapted LRAT−/− mouse gavaged with 6.5 mg 9-cis-retinyl acetate 3 days prior. FIG. 1E. Liver tissue from dark adapted LRAT−/− mouse. FIG. 1F. Liver tissue from dark-adapted LRAT−/− mouse gavaged with 5 mg all-trans-retinyl palmitate 2 days prior. FIG. 1G. Liver tissue from dark-adapted LRAT−/− mouse gavaged with 5 mg all-trans-retinyl acetate 2 days prior. FIG. 1H. Liver tissue from dark-adapted LRAT−/− mouse gavaged with 6.5 mg 9-cis-retinyl acetate 3 days prior.
9-cis-retinyl ester restores visual pigment in an LCA mouse model. LRAT−/− mice were gavaged with all-trans-retinyl palmitate, all-trans-retinyl acetate or 9-cis-retinyl acetate as indicated in the legend to FIG. 1A-1H. Following treatment, retinoids were extracted from the eye and liver, and analyzed by HPLC. […] 9-cis-retinyl ester restores visual pigment in approximately 5 hr (FIG. 2), while excess of retinoid is removed and metabolized (as illustrated for 9-cis-retinol).

Lrat−/− mice [2] = assay: Bioavailability comparison of oral 9-cis-retinaldehyde and 9-cis-retinyl acetate, by chromophore levels in LRAT−/− mice (Example 5); assay type: in vivo, mouse; conditions: low (10 μmoles) and high (15 μmoles) doses, effect more pronounced at low dose, FIG. 7
Procedure: A comparison of the bioavailability of orally delivered 9-cis-retinaldehyde and 9-cis-retinyl acetate in an LRAT−/− model. 9-cis-retinaldehyde and 9-cis-retinyl acetate were administered at low (10 μmoles) and high (15 μmoles) doses to LRAT−/− mice. Chromophore levels (as 9-cis-retinal oximes) were determined as described previously. See Van Hooser et at, J. Biol. Chem. 277:19173-182 (2002); Van Hooser et al., Proc. Natl. Acad. Sci. USA 97:8623-28 (2000); Maeda et al., J. Neurochem. 85:944-56 (2003). All reactions involving retinoids were carried out under dim red light.

Lrat−/− mice [3] = assay: 9-cis-RAL oxime levels in eyes of Lrat−/− mice after single or multiple oral doses (Example 3); assay type: in vivo, mouse
Procedure: Levels of 9-cis-RAL oximes (measured as syn- and anti-9-cis-retinyl aldehyde) in the eyes of Lrat−/− mice after a single dose or multiple doses of 9-cis-retinyl-acetate (9-cis-R-Ac). Doses of 9-cis-R-Ac were administered to Lrat−/− mice by oral gavage in vegetable oil (100% canola oil) in a volume of 500 ill (2.5 mg/ml). The mice weighed about 30-50 g. After 3 days, 9-cis-RAL oximes levels were determined by HPLC. Briefly, all experimental procedures related to extraction, derivatization, and separation of retinoids from dissected mouse eyes were carried out as described previously. See Van Hooser et al., J. Biol. Chem. 277:19173-182 (2002); Van Hooser et al., Proc. Natl. Acad. Sci. USA 97:8623-28 (2000); Maeda et al., J. Neurochem. 85:944-56 (2003). All reactions involving retinoids were carried out under dim red light.
Referring to FIG. 5a, the level of 9-cis-RAL in Lrat−/− in mouse eyes after a varying dose of 9-cis-R-Ac is shown. Peaks were identified by retention time and UV spectra and compared to standards. The spike around 19 min resulted from changes in the solvent composition. Retinoid analysis was performed on an HP1100 HPLC equipped with a diode array detector and HP Chemstation (A.07.01) software, allowing identification of retinoid isomers according to their specific retention time and absorption maxima. […]

Lrat−/− mice [4] = assay: Chromophore levels in eyes of Lrat−/− mice after all-trans-retinoid isoforms or 9-cis-retinyl succinate (Example 4); assay type: in vivo, mouse; conditions: 5 mg by oral gavage in canola oil (40 mg/ml), measured after 3 days; FIG. 6
Procedure: Levels of chromophore (opsin/retinal complexes) were measured in the eyes of mice after dosing with all-trans-retinoid isoforms or 9-cis-retinyl succinate. All-trans-retinyl-palmitate, all-trans-retinyl acetate, all-trans-retinal (vitamin A aldehyde), all-trans-retinol (vitamin A), all-trans-retinyl succinate and 9-cis-retinyl succinate were administered to Lrat−/− mice by oral gavage. Five milligrams of the retinoid isoforms or 9-cis-retinyl succinate were administered in 100% canola oil at a concentration of 40 mg/ml. After 3 days, chromophore levels (as all-trans-retinal oximes or 9-cis-retinal oximes) were determined as described previously. See Van Hooser et al., J. Biol. Chem. 277:19173-182 (2002); Van Hooser et al, Proc. Natl. Acad. Sci. USA 97:8623-28 (2000); Maeda et al., J. Neurochem. 85:944-56 (2003). All reactions involving retinoids were carried out under dim red light.

| SMILES | presence of syn-9-cis-retinal oxime in eyes (formation of the chromophore) ([1]; dark-adapted LRAT−/− mouse gavaged with 6.5 mg 3 days prior, FIG. 1D) | time in which visual pigment is restored ([1]; eye 9-cis-retinal oximes time course, FIG. 2) | restoration of chromophore levels (as 9-cis-retinal oximes), compared with 9-cis-retinaldehyde (Lrat−/− mice [2]) | maximal level of isorhodopsin (as 9-cis-retinal oximes) (Lrat−/− mice [3]; Lrat−/− mouse eyes after 10 gavages, FIG. 5b) | dose at which levels of 9-cis-RAL per eye leveled off (Lrat−/− mice [3]; single varying dose by oral gavage in canola oil, measured after 3 days, FIG. 5a) [µmol] | restoration of chromophore levels (as all-trans-retinal oximes or 9-cis-retinal oximes) (Lrat−/− mice [4]) |
| --- | --- | --- | --- | --- | --- | --- |
| CC(=O)OC/C=C(C)/C=C/C=C(C)\C=C\C1=C(C)CCCC1(C)C [9-cis-retinyl acetate] | restored the presence of syn-9-cis-retinal oxime | approximately 5 hr | more efficiently restores chromophore levels than 9-cis-retinaldehyde | comparable to the level of rhodopsin in wildtype (WT) mice | 4 to 6 |  |
| CC1=C(/C=C/C(C)=C\C=C\C(C)=C\COC(=O)CCC(=O)O)C(C)(C)CCC1 [9-cis-retinyl succinate] |  |  |  |  |  | restored chromophore levels |
